According to US20150064252A1, “SOLID DISPERSION FORMULATION OF AN ANTIVIRAL COMPOUND” (Gilead Pharmasset LLC, priority 2013, published 2015):

Tests used:
[1] = Spray dry feed solution and solid dispersion evaluation (solubility, stability); format: physicochemical
Method: The spray dry feed solution was prepared by solubilizing Compound I and polymer in the feed solvent. In certain cases, aggressive mixing or homogenization can be used to avoid clumping of the composition.
Different polymers were tested for preferred characteristics in the solid dispersions.
The feed solution was initially evaluated for appropriate solvent with regard to solubility, stability, and viscosity. […] Ethanol and methanol-based feed stocks were assessed for preparation ease and spray dried at a range of inlet and outlet temperatures to assess the robustness of the spray dry process. Both solvents gave rapid dissolution of Compound I and copovidone.

[2] = Pharmacokinetics of Compound I after single and multiple oral doses of solid dispersion tablets; format: in vivo, human; conditions: for half-life: t1/2
Method: The Compound I formulation is prepared as described above by combining Compound I amorphous free base in a 1:1 ratio by mass with copovidone, which is all dissolved in ethanol and spray dried to produce the Compound I solid dispersion. The Compound I solid dispersion is then mixed with various excipients in a dry granulation process to produce tablets that are film coated prior to packaging.
5 mg, 25 mg, 50 mg, and 100 mg tablet formulations were prepared according to Tables 1A and 1B).

[3] = Food effect on Compound I pharmacokinetics (fed vs fasted, light or high-fat breakfast); format: in vivo, human; conditions: for AUCinf % GLSM Ratio (Fed/Fasted) / AUClast % GLSM Ratio (Fed/Fasted) / Cmax % GLSM Ratio (Fed/Fasted) / Cmax / AUC(0-inf) / AUC(0-t): 100 mg; for Cmax / AUC(0-inf) / AUC(0-t): human, plasma, oral, N = 12; for AUC(0-inf): read-out: AUCinf GLSM; for AUC(0-t): read-out: AUClast GLSM
[4] = test system: HCV infection of genotypes 1 to 6; conditions: cited from earlier work
[5] = high-fat/high-calorie breakfast vs fasted
[6] = 100 mg fasted, high-fat breakfast cohort (Cohort 6)
[7] = 100 mg fasted, light breakfast cohort (Cohort 5)

**Q.** For `COC[C@H]1C[C@@H](c2ncc(-c3ccc4c(c3)COc3cc5c(ccc6nc([C@@H]7CC[C@H](C)N7C(=O)[C@@H](NC(=O)OC)C(C)C)[nH]c65)cc3-4)[nH]2)N(C(=O)[C@H](NC(=O)OC)c2ccccc2)C1` [Compound I, Methyl {(2S)-1-[(2S,5S)-2-(9-{2-[(2S,4S)-1-{(2R)-2-[(methoxycarbonyl)amino]-2-phenylacetyl}-4-(methoxymethyl)pyrrolidin-2-yl]-1H-imidazol-5-yl}-1,11-dihydroisochromeno[4′,3′:6,7]naphtho[1,2-d]imidazol-2-yl)-5-methylpyrrolidin-1-yl]-3-methyl-1-oxobutan-2-yl}carbamate], which “solubility in feed solvent” value ([1]; ethanol, methanol, acetone, and dichloromethane (DCM)) is on record?
**A.** The value was “excellent solubility”.

**Q.** And the “chemical stability in feed solution” value ([1]; ethanolic feed solution)?
**A.** The value was “good chemical stability”.

**Q.** What about the “dose proportionality of exposure (AUC and Cmax)” value ([2]; human, in vivo) of the same compound?
**A.** Its value is “nonlinear PK”.

**Q.** And the AUC(0-inf) ([2]; human, in vivo, 5 mg)?
**A.** The AUC(0-inf) was 0.159 µg·h/mL.

**Q.** What about the AUC(0-t) ([2]; human, in vivo, 5 mg) of the same compound?
**A.** The AUC(0-t) was 0.134 µg·h/mL.

**Q.** What about the CL/F ([2]; human, in vivo, 5 mg) of the same compound?
**A.** Its CL/F is 58,398.0 mL/h.

**Q.** What about the Cmax ([2]; human, in vivo, 5 mg) of the same compound?
**A.** Its Cmax is 0.0224 µg/mL.

**Q.** What about the Tmax ([2]; human, in vivo, 5 mg, Tmax) of the same compound?
**A.** Its Tmax is 1.5 h.

**Q.** What about the half-life ([2]; human, in vivo, 5 mg) of the same compound?
**A.** The half-life was 11.2 h.

**Q.** What about the AUC(0-inf) ([2]; human, in vivo, 50 mg) of the same compound?
**A.** The AUC(0-inf) was 3.02 µg·h/mL.

**Q.** And the AUC(0-t) ([2]; human, in vivo, 50 mg)?
**A.** Its AUC(0-t) is 2.97 µg·h/mL.

**Q.** And the CL/F ([2]; human, in vivo, 50 mg)?
**A.** Its CL/F is 19,188.4 mL/h.

**Q.** And the Cmax ([2]; human, in vivo, 50 mg)?
**A.** The Cmax was 0.371 µg/mL.

**Q.** And the Tmax ([2]; human, in vivo, 50 mg, Tmax)?
**A.** The Tmax was 2.5 h.

**Q.** What about the half-life ([2]; human, in vivo, 50 mg) of the same compound?
**A.** The half-life was 13.6 h.

**Q.** And the AUC(0-inf) ([2]; human, in vivo, 100 mg)?
**A.** The AUC(0-inf) was 5.05 µg·h/mL.

**Q.** What about the AUC(0-t) ([2]; human, in vivo, 100 mg) of the same compound?
**A.** The AUC(0-t) was 4.99 µg·h/mL.

**Q.** And the CL/F ([2]; human, in vivo, 100 mg)?
**A.** The CL/F was 24,617.9 mL/h.

**Q.** And the Cmax ([2]; human, in vivo, 100 mg)?
**A.** The Cmax was 0.575 µg/mL.

**Q.** What about the Tmax ([2]; human, in vivo, 100 mg, Tmax) of the same compound?
**A.** The Tmax was 2.5 h.

**Q.** And the half-life ([2]; human, in vivo, 100 mg)?
**A.** The half-life was 15.7 h.

**Q.** And the AUC(0-inf) ([2]; human, in vivo, 150 mg)?
**A.** The AUC(0-inf) was 4.98 µg·h/mL.

**Q.** What about the AUC(0-t) ([2]; human, in vivo, 150 mg) of the same compound?
**A.** The AUC(0-t) was 4.93 µg·h/mL.

**Q.** What about the Cmax ([2]; human, in vivo, 150 mg) of the same compound?
**A.** The Cmax was 0.608 µg/mL.

**Q.** And the Tmax ([2]; human, in vivo, 150 mg, Tmax)?
**A.** The Tmax was 2.75 h.

**Q.** And the half-life ([2]; human, in vivo, 150 mg)?
**A.** The half-life was 16.2 h.

**Q.** What about the AUC(0-inf) ([2]; human, in vivo, 450 mg) of the same compound?
**A.** Its AUC(0-inf) is 9.58 µg·h/mL.

**Q.** And the AUC(0-t) ([2]; human, in vivo, 450 mg)?
**A.** Its AUC(0-t) is 9.5 µg·h/mL.

**Q.** What about the CL/F ([2]; human, in vivo, 450 mg) of the same compound?
**A.** Its CL/F is 53,676.4 mL/h.

**Q.** What about the Cmax ([2]; human, in vivo, 450 mg) of the same compound?
**A.** Its Cmax is 1.12 µg/mL.

**Q.** What about the Tmax ([2]; human, in vivo, 450 mg, Tmax) of the same compound?
**A.** Its Tmax is 3.25 h.

**Q.** And the half-life ([2]; human, in vivo, 450 mg)?
**A.** Its half-life is 15 h.

**Q.** What about the Tmax ([2]; human, in vivo, po, median Tmax (time of maximum plasma concentrations)) of the same compound?
**A.** The Tmax was 1.5 to 3.25 h.

**Q.** What about the “mean plasma concentrations at 24 hours postdose relative to protein-adjusted EC50 for genotype 1 to 6 HCV replicons” value ([2]; multiple once-daily doses greater than 5 mg) of the same compound?
**A.** Its value is “above the protein-adjusted concentration of a compound inhibiting virus replication by 50% (EC50)”.

**Q.** What about the “AUCinf % GLSM Ratio (Fed/Fasted)” value ([3]; high-fat breakfast) of the same compound?
**A.** Its value is 86.30%.

**Q.** And the “AUClast % GLSM Ratio (Fed/Fasted)” value ([3]; high-fat breakfast)?
**A.** The value was 86.02%.

**Q.** And the “Cmax % GLSM Ratio (Fed/Fasted)” value ([3]; high-fat breakfast)?
**A.** The value was 75.02%.

**Q.** What about the “AUCinf % GLSM Ratio (Fed/Fasted)” value ([3]; light breakfast) of the same compound?
**A.** Its value is 124.72%.

**Q.** And the “AUClast % GLSM Ratio (Fed/Fasted)” value ([3]; light breakfast)?
**A.** Its value is 124.84%.

**Q.** What about the “Cmax % GLSM Ratio (Fed/Fasted)” value ([3]; light breakfast) of the same compound?
**A.** The value was 134.89%.

**Q.** And the “effect of food on absorption and bioavailability” value ([3]; formulated as a solid dispersion)?
**A.** The value was “slowed the rate of absorption”.

**Q.** And the “decrease in AUC with food” value [3, 5]?
**A.** The value was 14%.

**Q.** And the “decrease in Cmax with food” value [3, 5]?
**A.** The value was 25%.

**Q.** And the Cmax [3, 6]?
**A.** The Cmax was 0.486 µg/mL.

**Q.** What about the AUC(0-inf) [3, 6] of the same compound?
**A.** Its AUC(0-inf) is 3.79 µg·h/mL.

**Q.** What about the AUC(0-t) [3, 6] of the same compound?
**A.** Its AUC(0-t) is 3.75 µg·h/mL.

**Q.** And the Cmax [3, 7]?
**A.** The Cmax was 0.582 µg/mL.

**Q.** What about the AUC(0-inf) [3, 7] of the same compound?
**A.** The AUC(0-inf) was 5.47 µg·h/mL.

**Q.** What about the AUC(0-t) [3, 7] of the same compound?
**A.** Its AUC(0-t) is 5.39 µg·h/mL.

**Q.** What about the Cmax ([3]; 100 mg fed, high-fat breakfast) of the same compound?
**A.** Its Cmax is 0.364 µg/mL.

**Q.** What about the AUC(0-inf) ([3]; 100 mg fed, high-fat breakfast) of the same compound?
**A.** Its AUC(0-inf) is 3.27 µg·h/mL.

**Q.** What about the AUC(0-t) ([3]; 100 mg fed, high-fat breakfast) of the same compound?
**A.** Its AUC(0-t) is 3.22 µg·h/mL.

**Q.** What about the Cmax ([3]; 100 mg fed, light breakfast) of the same compound?
**A.** Its Cmax is 0.785 µg/mL.

**Q.** And the AUC(0-inf) ([3]; 100 mg fed, light breakfast)?
**A.** The AUC(0-inf) was 6.82 µg·h/mL.

**Q.** What about the AUC(0-t) ([3]; 100 mg fed, light breakfast) of the same compound?
**A.** Its AUC(0-t) is 6.73 µg·h/mL.

**Q.** And the “increase in AUC with food” value ([3]; light breakfast vs fasted)?
**A.** The value was 25%.

**Q.** What about the “increase in Cmax with food” value ([3]; light breakfast vs fasted) of the same compound?
**A.** Its value is 35%.

**Q.** What about the anti-HCV activity [4] of the same compound?
**A.** The anti-HCV activity was “potent anti-HCV activity”.
